From patent US20230277508A1, “USE OF COMPOUND AS CYP2E1 INHIBITOR” (SHANGHAI LING XI BIOTECHNOLOGY DEVELOPMENT CO., LTD., priority 2020, published 2023)

How the values were obtained:
GL261 cells = assay: Direct effect on GL261 glioma cells in vitro; format: cell-based, murine
Protocol: Experimental method: GL261 murine glioma cells and U251 human glioma cells in a logarithmic growth phase each were selected and inoculated into a 96-well plate at a concentration of 5*10^5 cells/mL, then 100 μL of a cell suspension was added to each well, and 12 h later, a medium was discarded; 200 μL of a basic medium including SMI0 at different concentrations ([…]) was added to each well, […]; and the cells were further cultivated for 2 h, and an absorbance OD value of each well was determined at 450 nm by a microplate reader. 3 replicates were set for each well, and an average was taken. The proliferation activity was calculated based on the OD value.

[1] = tested on: glioma cell line GL261 brain in situ transplanted tumor; assay: Mouse glioma model, in situ implantation of GL261 cells into the brain; format: in vivo, C57/BL6 mouse
Protocol: Experimental method: A female C57/BL6 mouse glioma model was constructed through in situ implantation of a glioma cell line GL261, with a cell concentration of 1*10^6. Experimental groups: sham-operated group (n=9); model group (n=10); temozolomide group (50 mg/kg, ig, n=11); SMI0 low-dose group (3.3 mg/kg, ig, n=13); SMI0 medium-dose group (10 mg/kg, ig, n=13); and SMI0 high-dose group (30 mg/kg, ig, n=13). The SMI0 intervention group was intragastrically administered with the compound SMI0 every day starting from three days before modeling, and the positive drug group was administered on day 3 to day 7 and day 10 to day 14 after surgery. The modeling took about 21 days. At the end of the experiment, blood was collected from the orbit, a body weight was measured, then the mice each were sacrificed, and brain tissues were collected. Brain tissue specimens were subjected to HE staining, and then the brain tissue lesion and tumorigenesis of mice in each group were observed.

GL261 cells / astrocytes = assay: GL261 cells co-cultivated with M2 astrocytes; format: cell-based, mouse; conditions: SMI0 50 μmol/L vs M2 astrocyte co-cultivation group, P<0.05
Protocol: Experimental method: 10 1-2 d newborn C57BL/6 WT mice and 6 CYP2E1^−/− mice were taken, primary microglial cells and astrocytes were collected and inoculated into 6-well plates, and 24 h later, culture supernatants were taken and co-cultivated with glioma cells. Experimental groups: control group; M2 model group; high-concentration, medium-concentration, and low-concentration SMI0 (50 μmol/L, 12.5 μmol/L, and 3.1 μmol/L) groups; and CYP2E1 gene-knockout group. 24 h later, supernatants were discarded; and […] and IL-13 each were added at 20 ng/mL to induce the transformation of microglial cells into the M2 type in the M2 model group and the high-concentration, medium-concentration, and low-concentration SMI0 groups, and different concentrations of SMI0 (50 μmol/L, 12.5 μmol/L, and 3.1 μmol/L) were also added in the intervention groups. The proliferation of glioma cells was determined by a CCK8 method, and an apoptosis proportion was determined by an Annexin V-FITC-PI apoptosis staining kit.

[2] = tested on: liver cancer cell line H22 in situ transplanted tumor; assay: Mouse liver cancer model, in situ implantation of H22 cells into liver; format: in vivo, BALB/c mouse; conditions: for liver H22 tumor incidence: 24 days, model group 100%
Protocol: Experimental method: A male BALB/c mouse liver transplanted tumor model was constructed through in situ implantation of a liver cancer cell line H22 into the liver, with a cell concentration of 1.5*10^5. An SMI0 intervention group was divided into a low-dose group, a medium-dose group, and a high-dose group, which were intragastrically administered with the compound SMI0 respectively at 3.3 mg/kg, 10 mg/kg, and 30 mg/kg every day from two days before modeling to the end of the 24-day modeling (model group, n=19 mice; SMI0 compound low-dose group, n=19 mice; SMI0 compound medium-dose group, n=18 mice; and SMI0 compound high-dose group, n=29 mice). At the end of the experiment, blood was collected from the orbit, a body weight was measured, and then the mice each were sacrificed. The weight and appearance of a liver (color and texture of the liver) were recorded. Some liver specimens were subjected to HE staining, and then the liver lesion and tumorigenesis of mice in each group were observed.
Experimental method: The levels of oxidative stress indexes MDA and T-AOC in the mouse paracancerous liver tissue were determined by a kit method; the expression of the chemokine CXCL-12 in the mouse paracancerous liver tissue was detected by RT-PCR; the expression of proinflammatory cytokines (TNF-α, IL-6, and IL-1β) and inflammation-associated signaling pathway proteins (ARRB1, Src, ITGAV, p-STAT3/STAT3, p-ERK/ERK, and p-P38MAPK/P38MAPK) in the mouse paracancerous liver tissue was detected by a WB method; and the expression of apoptosis-associated proteins and signaling pathways casPase3, cleaved casPase3, p-ERK/ERK, and p-p38MAPK/p38MAPK in the tumor tissue was detected by a WB method.

[3] = WB, SMI0 30 mg/kg vs model group

In the case of `CC(=O)c1scnc1C` [SMI0], the “inhibitory effect on GL261” value (GL261 cells; 0 μM to 128 μM, 48 h) is reported as “no significant inhibitory effect”, the “effect on the proliferation of GL261 glioma cells” value (GL261 cells; up to 128 μmol/L or 200 μmol/L, CCK8) is reported as “no significant inhibitory effect” and the “glioma growth in mice” value ([1]; SMI0 intervention (3.3, 10, 30 mg/kg ig daily), about 21 days, vs model group) is reported as “significantly inhibited”. The “tumor proliferation inhibition rate” value ([1]; as high as, SMI0 high-dose group 30 mg/kg ig) was 97.6%, the “proliferation activity of GL261 cells” value (GL261 cells / astrocytes) was “significantly weakened” and the “liver H22 tumor incidence” value ([2]; SMI0 high-dose 30 mg/kg ig daily) was 68.4%. For the same compound, the “total oxidation resistance index T-AOC in paratumoral liver tissue” value ([2]; SMI0 intervention group vs model group, P<0.01) was “significantly increased”, the “expression of other proteins (MDA, CXCL-12, TNF-α, IL-6, IL-1β, ARRB1, Src, ITGAV, p-STAT3/STAT3, p-ERK/ERK, p-p38MAPK/p38MAPK) in paratumoral liver tissue” value ([2]; SMI0 intervention group vs model group, P<0.05 or P<0.01) was “significantly reduced” and the “liver H22 tumor incidence” value ([2]; SMI0 low-dose 3.3 mg/kg ig daily) was 78.9%. The “liver H22 tumor incidence” value ([2]; SMI0 medium-dose 10 mg/kg ig daily) was 72.2%, the “expression of p-ERK/ERK in the tumor tissue” value [2, 3] was “significantly down-regulated” and the “expression of p-p38MAPK/p38MAPK in the tumor tissue” value [2, 3] was “significantly down-regulated”. For the same compound, the “expression of cleaved caspase3/caspase3 in the tumor tissue” value ([2]; WB, SMI0 30 mg/kg vs model group, P<0.01) was “significantly up-regulated” and the “tumor proliferation inhibition rate” value ([2]; as high as, SMI0 intervention group (3.3, 10, 30 mg/kg), cumulative liver tumor weight) was 71.8%.
